Results on 5 compounds are retold here after US9035057B2, “Dihydroethidine analogues and uses thereof” (Washington University, priority 2009, dated 2015).

A short description of data set [1]: Exposure to H202 in the presence of horseradish peroxidase (HRP), fluorescence. It is filed as biochemical. To be noted: H202 with HRP, supraphysiologic levels. The procedure: (§1) This example illustrates a comparison of compounds for selective reactivity with superoxide radical. In these experiments, compounds WC-63, WC-77 and WC-81 were exposed to superoxide generated by xanthine oxidase/hypoxanthine in the absence or presence SOD, and were evaluated similarly as compound C1 in Example 10. The concentration of DHE for all experiments was double that of compounds WC-63, WC-77 and WC-81. […] All of the compounds were also exposed to H202 in the presence of horseradish peroxidase (HRP) to generate hydroxyl radical.

Data set [2] in a line: Selective reactivity with superoxide generated by xanthine oxidase/hypoxanthine, absence or presence of SOD. It counts as biochemical. To be noted: for specificity for superoxide: FIG. 3, change in fluorescent units from baseline; for specificity for superoxide, comparison among compounds: levels of hydroxyl radical very supraphysiological; for oxidation by superoxide / effect of SOD on oxidation by superoxide: xanthine oxidase/hypoxanthine; for oxidation by superoxide: absence of SOD, DHE concentration double that of the WC compounds; for effect of SOD on oxidation by superoxide: presence of SOD. The protocol: as §1

Data set [3] can be described thus: Exposure to H202 alone, fluorescence. It is filed as biochemical. The protocol:
as §1

Data set [4] can be described thus: In vivo oxidation in brains of ketamine-pretreated mice, confocal microscopy. The note with it: for detection of superoxide produced by ketamine treatment (fluorescence of oxidized form in mouse brain): ketamine pretreatment. The procedure:
In these experiments, mice were pretreated for several days with subanesthetic doses of ketamine, which produces a large increase in neuronal superoxide generation (Behrens et al, 2007). The mice were injected with 27 mg/kg of compound C1 and sacrificed 16 hours later. Brains were sliced and imaged by confocal microscopy. The images of the brains sliced 16 hours after administration of compound C1 are depicted in FIG. 4. […] The quantitative measures of fluorescence of the oxidized forms of DHE and compound C1 in mouse brain are depicted in FIG. 5. When compound C1 was administered to transgenic mice overexpressing SOD, the increased fluorescence from the ketamine pretreatment was abolished, consistent with the SOD removal of superoxide (FIG. 5).

Data set [5] can be described thus: Tissue uptake of the tracers, fluorescence lifetime imaging. It counts as in vivo, mice. To be noted: FIG. 8. From the text: This example illustrates tissue uptake of the tracers. In these experiments, tracer lifetimes in mice were studied by fluorescence imaging of DHE and compounds WC-63, WC-77 and WC-81.
Data set [6] in a line: Fluorescence from oxidation of compound WC-81 in mouse brain images. It counts as in vivo, mice. The note with it: FIG. 7. The procedure:
This example illustrates fluorescence from oxidation of Compound WC-81. In these experiments, compound WC-81 was administered to mice, and images of mouse brains were then obtained (FIG. 7).

Data set [7] is described as follows: Kinetics of compound WC-81 in brain in vivo, eXplore Optix-MX2 fluorescence scanner. More on the design: species or system mouse. The protocol: In these experiments, an anesthetized mouse was placed in an eXplore Optix™-MX2 scanner, and an initial scan was completed for background fluorescence (T=0). A single intraperitoneal injection of 50 mg/kg of compound WC-81 in 50% DMSO, 50% saline was performed, and the animal was rescanned at 10 minutes. It took approximately 5 minutes to complete the scan. The mouse was removed, allowed to recover, then re-anesthetized and rescanned at 1 hour. A similar recovery and rescan was performed at 2 hours. The mouse was pretreated with subanesthetic doses of ketamine to raise superoxide levels. Cortical (left and right) and cerebellar activity are depicted in FIG. 6.

The nature of data set [8]: Comparative oxidation of C1 and DHE in the presence of oxidizers, single wavelength fluorescence platereader study. It is filed as biochemical. To be noted: elevations with superoxide but not with peroxide (H202), hydroxyl radical (HO—) or peroxynitrate (ONOO—); FIG. 2. The protocol: This example illustrates comparative oxidation of C1 and DHE. In these experiments, fluorescence of C1 or DHE were determined in the presence of oxidizers. […] In this single wavelength fluorescence platereader study, it should be noted that the ratio of fluorescence increase in a study cannot be compared between DHE and compound C1 since their non-oxidized forms have fluorescence and the light spectra overlap to a variable degree with the oxidized forms.

A short description of data set [9]: Plate reader oxidation of compound C1 with peroxide. It is filed as biochemical. To be noted: H202 1 mM. The protocol: (§2) This example illustrates oxidation rates of Compound C1 under various conditions. In these experiments, fluorescence intensity of Compound C1 was evaluated in a plate reader assay, and the fluorescence intensity over time of the oxidation rate of compound C1 was evaluated. […] Excitation was done at 480 nm and emission filtering was >590 nm. The following reaction conditions were used: [table]

The nature of data set [10]: Plate reader oxidation of compound C1 with H202 and horseradish peroxidase. It is filed as biochemical. To be noted: H202 1 mM, HRP 0.2 U/ml. The procedure: as §2
Data set [11] is described as follows: Plate reader oxidation rate of compound C1, superoxide production with hypoxanthine and xanthine oxidase (XO system). It counts as biochemical. The protocol: as §2

As to `CN1c2cc(N)ccc2-c2ccc(N)cc2C1c1ccc(OCc2cn(CCF)nn2)cc1` (stereo not drawn) [WC-77], the “oxidation in the presence of hydroxyl radical” value (from here on “oxidation in the presence”) in data set [1] is listed as “generally no evidence of oxidation”. In data set [2], the specificity for superoxide entry is “high specificity for superoxide”; the “specificity for superoxide, comparison among compounds” value is given as “most specific compound for superoxide”; the oxidation by superoxide entry is on record as “oxidized by superoxide”; the “effect of SOD on oxidation by superoxide” value is on record as “fully blocked oxidation”. The “oxidation with H202” value in data set [3] was “generally no evidence of oxidation”.

For the compound `CCN1c2cc(N)ccc2-c2ccc(N)cc2C1c1ccccc1` (stereo not drawn) [DHE, 2,7-diamino-10-ethyl-9-phenyl-9,10-dihydrophenanthradine, reference compound], in [4] (FIG. 5), the “detection of superoxide produced by ketamine treatment (fluorescence of oxidized form in mouse brain)” value was “detected a large increase”. For the same compound, in [2], the oxidation by superoxide result is on record as “oxidized by superoxide” and the “effect of SOD on oxidation by superoxide” value is “fully blocked oxidation”. Also, the “tissue presence of tracer” value in [5] was “present in the brain and organs in the chest”.

Consider `CN1c2cc(N)ccc2-c2ccc(N)cc2C1c1ccc(OCCF)cc1` (stereo not drawn) [WC-81], for which the “localization of fluorescence from oxidation in brain” value in data set [6] was “localized to cerebral microvessels and to the extracellular space around certain cortical or hippocampal neurons”. In data set [7] (50 mg/kg intraperitoneal, 120 minutes), the “brain fluorescence levels at 120 minutes” value is recorded as “fall in levels”. The “time by which plateau of brain fluorescence was reached” value in data set [7] (50 mg/kg intraperitoneal, cortical and cerebellar activity) is ≤ 60 min. In addition, the brain penetration entry in data set [7] (single intraperitoneal injection 50 mg/kg in 50% DMSO, 50% saline, ketamine pretreated mouse, FIG. 6) is “penetrated the brain”. For the same compound, the “oxidation in the presence” value in data set [1] was “partial oxidation”. Further, in data set [2], the “stability of the product, comparison among compounds” value was “most stable and intact product”; the specificity for superoxide entry is “high specificity for superoxide”; the “specificity for superoxide, comparison among compounds” value is “highly selective for superoxide”; the oxidation by superoxide entry was “oxidized by superoxide”. In [2], the “effect of SOD on oxidation by superoxide” value is reported as “fully blocked oxidation”. The “tissue presence of tracer” value in data set [5] was “present in the brain and organs in the chest”. Further, the “oxidation with H202” value in data set [3] is “generally no evidence of oxidation”.

`COc1ccc(C2c3cc(N)ccc3-c3ccc(N)cc3N2C)cc1` (stereo not drawn) [WC-63]: the “oxidation in the presence” value in data set [1] is given as “generally no evidence of oxidation”. Besides, in data set [2], the specificity for superoxide result is “high specificity for superoxide”, the oxidation by superoxide result was “oxidized by superoxide” and the “effect of SOD on oxidation by superoxide” value was “fully blocked oxidation”. The “tissue presence of tracer” value in [5] was “present in the brain and organs in the chest”. Also, in data set [3], the “oxidation with H202” value is given as “generally no evidence of oxidation”.

In the case of `CN1c2cc(N)ccc2-c2ccc(N)cc2C1c1ccccc1` (stereo not drawn) [C1], the “selective oxidation (fluorescence) in the presence of oxidizers” value in data set [8] is “selective oxidation similar to DHE”. Further, the “pattern of brain fluorescence” value in [4] (ketamine pretreated mice, 27 mg/kg, sacrificed 16 hours later, FIG. 4) was “consistent with the presence of intracellular oxidized compound C1”. Also, the “detection of superoxide produced by ketamine treatment (fluorescence of oxidized form in mouse brain)” value in data set [4] (FIG. 5) is on record as “detected a large increase”. Moreover, in [4] (transgenic mice overexpressing SOD, FIG. 5), the “increased fluorescence from ketamine pretreatment in transgenic mice overexpressing SOD” value is “abolished”. Moreover, in data set [9], the oxidation with peroxide entry was “no oxidation”. For the same compound, the “oxidation with H202 with horseradish peroxidase” value in data set [10] is “no oxidation”. For the same compound, in data set [11] (XO system plus SOD 575 U/ml), the “effect of superoxide dismutase (SOD) on oxidation” value is listed as “completely removed”. Moreover, in data set [11] (XO system plus catalase 60 U/ml), the “effect of catalase on oxidation” value is reported as “did not effect”. Moreover, in [11] (data not shown), the “rate of conversion by oxidation compared with DHE” value is reported as “slightly faster than DHE”. Besides, the “oxidation under superoxide production” value in data set [11] (hypoxanthine and xanthine oxidase (XO system)) is “oxidized rapidly”. Further, the “reactivity and selectivity for superoxide (fluorescence intensity over time)” value in [11] (plate reader, excitation 480 nm, emission >590 nm, FIG. 1) was “both reactivity and selectivity for superoxide”.
